Assay [1] has as its target T1, Androgen receptor (Homo sapiens, UniProt P10275).
T1 sequence (P10275 whole entry): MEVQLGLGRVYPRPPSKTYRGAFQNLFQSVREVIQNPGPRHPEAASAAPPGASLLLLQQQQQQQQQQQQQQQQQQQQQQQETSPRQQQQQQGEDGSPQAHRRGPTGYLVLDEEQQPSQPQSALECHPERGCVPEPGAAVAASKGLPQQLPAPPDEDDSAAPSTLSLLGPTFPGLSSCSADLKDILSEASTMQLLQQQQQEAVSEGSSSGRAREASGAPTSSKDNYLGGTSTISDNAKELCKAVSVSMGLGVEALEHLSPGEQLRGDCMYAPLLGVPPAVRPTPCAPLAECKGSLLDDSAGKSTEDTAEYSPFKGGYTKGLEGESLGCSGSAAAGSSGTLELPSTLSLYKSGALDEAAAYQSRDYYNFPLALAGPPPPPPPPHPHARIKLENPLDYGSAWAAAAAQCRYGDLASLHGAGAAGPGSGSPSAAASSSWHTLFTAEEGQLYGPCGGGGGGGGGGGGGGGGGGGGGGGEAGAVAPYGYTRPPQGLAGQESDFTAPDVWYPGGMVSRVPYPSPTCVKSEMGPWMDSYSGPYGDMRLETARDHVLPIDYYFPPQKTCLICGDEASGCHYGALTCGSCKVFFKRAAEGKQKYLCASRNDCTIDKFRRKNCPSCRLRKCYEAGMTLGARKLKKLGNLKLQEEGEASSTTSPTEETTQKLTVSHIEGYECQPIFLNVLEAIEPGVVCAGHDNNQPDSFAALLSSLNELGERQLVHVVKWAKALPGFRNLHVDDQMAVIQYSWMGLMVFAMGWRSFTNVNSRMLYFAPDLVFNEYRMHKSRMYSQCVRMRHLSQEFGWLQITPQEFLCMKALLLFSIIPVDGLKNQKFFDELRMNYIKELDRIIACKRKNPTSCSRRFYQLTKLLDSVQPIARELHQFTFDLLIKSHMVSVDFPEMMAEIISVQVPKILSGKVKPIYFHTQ
In words: Induction of AR degradation in human LNCaP cells. Type of assay: cell-based.

Assay [2] can be described thus: Induction of huntingtin polyQ mutant degradation in human A 172 cells. Type of assay: cell-based.
For assay [3], the system named is Cortical neuron. In words: Induction of huntingtin polyQ mutant degradation in mouse primary cortical neuron. The assay is classed as cell-based. The conditions noted are these: dose 10.0 µM.
For assay [4], the target named is Bromodomain-containing protein 4 (Homo sapiens) (UniProt O60885). In words: Induction of BRD4 degradation in human HeLa cells relative to control. The assay is classed as cell-based.
The target is the same in assay [5]. The experiment in a line: Induction of BRD4 degradation in human MDA-MB-231 cells at 10 uM relative to control. The assay is classed as cell-based.
Assay [6] is described as follows: Downregulation of extracellular oleic acid induced lipid droplets in MEF cells. Type of assay: functional, Mus musculus.
Assay [7] deals with T2, Sequestosome-1/Estrogen receptor beta (Homo sapiens, UniProt Q92731+Q13501). The experiment in a line: Autotac activity at p62/ERbeta degradation in HEK293T cells. Type of assay: cell-based.
Assay [8] has as its target T2, Sequestosome-1/Estrogen receptor beta. The experiment in a line: Autotac activity at p62/ERbeta degradation in human ACHN cells. Type of assay: cell-based.
Assay [9] shares this target. The experiment in a line: Autotac activity at p62/ERbeta degradation in human MCF7 cells. The assay is classed as cell-based.
Assay [10] concerns the target T3, Estrogen receptor beta (Homo sapiens, UniProt Q92731). The experiment in a line: Induction of ERbeta degradation in human HEK293T cells. Type of assay: cell-based.
Assay [11] has as its target T3, Estrogen receptor beta. In words: Induction of ERbeta degradation in human ACHN cells. The assay is classed as cell-based.
The target of assay [12] is T3, Estrogen receptor beta. In words: Induction of ERbeta degradation in human MCF7 cells. Type of assay: cell-based.
Assay [13] concerns the target T4, Nicotinamide phosphoribosyltransferase (Homo sapiens, UniProt P43490). The experiment in a line: Induction of NAMPT degradation in human A2780 cells. The assay is classed as cell-based.
Target sequence in this assay (P43490 whole entry): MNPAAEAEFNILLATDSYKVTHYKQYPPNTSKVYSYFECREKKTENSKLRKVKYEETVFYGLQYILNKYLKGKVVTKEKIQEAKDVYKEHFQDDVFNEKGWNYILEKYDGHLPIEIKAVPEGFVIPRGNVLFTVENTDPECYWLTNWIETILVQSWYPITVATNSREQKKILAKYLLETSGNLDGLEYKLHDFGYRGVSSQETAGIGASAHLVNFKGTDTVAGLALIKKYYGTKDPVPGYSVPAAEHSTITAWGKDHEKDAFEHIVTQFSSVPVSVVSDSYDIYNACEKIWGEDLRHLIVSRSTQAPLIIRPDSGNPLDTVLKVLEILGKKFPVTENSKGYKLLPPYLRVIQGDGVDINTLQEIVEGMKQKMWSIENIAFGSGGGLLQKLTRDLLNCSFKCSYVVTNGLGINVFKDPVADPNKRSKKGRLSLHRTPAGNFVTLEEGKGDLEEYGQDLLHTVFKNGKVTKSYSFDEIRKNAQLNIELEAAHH
The target of assay [14] is T4, Nicotinamide phosphoribosyltransferase. The experiment in a line: Induction of NAMPT degradation in human A2780 cells at 3 uM relative to control. The assay is classed as cell-based.
Target sequence in this assay (P43490 whole entry, looked up): as the sequence (P43490 whole entry) above
Assay [15] deals with Sequestosome-1/Microtubule-associated protein tau (Homo sapiens, UniProt P10636+Q13501, P618L). The experiment in a line: Autotac activity at p62/tau P301L mutant in human SH-SY5Y cells assessed as tau P301L degradation. Type of assay: cell-based.
Assay [16] has as its target T5, Methionine aminopeptidase 2 (Homo sapiens, UniProt P50579). The experiment in a line: Induction of MetAP2 degradation in human HEK293 cells. Type of assay: cell-based.
The target of assay [17] is T5, Methionine aminopeptidase 2. The experiment in a line: Induction of MetAP2 degradation in human U87MG cells. Particulars: u87mg human egfr viii. The assay is classed as cell-based.

T3 sequence (Q92731 whole entry): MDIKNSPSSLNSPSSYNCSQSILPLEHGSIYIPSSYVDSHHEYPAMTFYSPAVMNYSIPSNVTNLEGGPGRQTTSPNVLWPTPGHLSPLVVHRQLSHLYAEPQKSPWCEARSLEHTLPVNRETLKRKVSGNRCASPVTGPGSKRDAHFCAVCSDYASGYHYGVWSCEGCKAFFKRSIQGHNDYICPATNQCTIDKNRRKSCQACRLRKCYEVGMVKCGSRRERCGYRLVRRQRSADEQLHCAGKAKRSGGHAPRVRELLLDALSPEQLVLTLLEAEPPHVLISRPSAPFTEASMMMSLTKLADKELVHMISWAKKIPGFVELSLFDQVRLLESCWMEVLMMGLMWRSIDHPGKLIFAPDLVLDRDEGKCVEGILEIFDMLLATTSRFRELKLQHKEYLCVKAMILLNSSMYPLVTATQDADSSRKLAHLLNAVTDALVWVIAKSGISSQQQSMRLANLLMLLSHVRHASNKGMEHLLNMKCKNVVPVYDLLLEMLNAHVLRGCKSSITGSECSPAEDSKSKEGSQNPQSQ
T2 sequence (Q92731 whole entry): as above
T2 sequence (Q13501 whole entry): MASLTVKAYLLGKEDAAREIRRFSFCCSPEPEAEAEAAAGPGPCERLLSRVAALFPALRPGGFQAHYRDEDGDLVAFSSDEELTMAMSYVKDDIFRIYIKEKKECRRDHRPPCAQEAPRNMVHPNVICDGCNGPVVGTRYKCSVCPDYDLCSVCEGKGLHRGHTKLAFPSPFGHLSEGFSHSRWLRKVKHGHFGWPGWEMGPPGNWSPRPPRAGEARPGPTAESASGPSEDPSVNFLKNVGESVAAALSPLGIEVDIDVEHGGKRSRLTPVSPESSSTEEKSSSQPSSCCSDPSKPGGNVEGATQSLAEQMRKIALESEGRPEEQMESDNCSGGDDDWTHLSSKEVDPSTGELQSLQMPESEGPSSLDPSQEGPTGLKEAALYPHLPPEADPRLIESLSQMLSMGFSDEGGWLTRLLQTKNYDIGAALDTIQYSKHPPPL
T5 sequence (P50579 whole entry): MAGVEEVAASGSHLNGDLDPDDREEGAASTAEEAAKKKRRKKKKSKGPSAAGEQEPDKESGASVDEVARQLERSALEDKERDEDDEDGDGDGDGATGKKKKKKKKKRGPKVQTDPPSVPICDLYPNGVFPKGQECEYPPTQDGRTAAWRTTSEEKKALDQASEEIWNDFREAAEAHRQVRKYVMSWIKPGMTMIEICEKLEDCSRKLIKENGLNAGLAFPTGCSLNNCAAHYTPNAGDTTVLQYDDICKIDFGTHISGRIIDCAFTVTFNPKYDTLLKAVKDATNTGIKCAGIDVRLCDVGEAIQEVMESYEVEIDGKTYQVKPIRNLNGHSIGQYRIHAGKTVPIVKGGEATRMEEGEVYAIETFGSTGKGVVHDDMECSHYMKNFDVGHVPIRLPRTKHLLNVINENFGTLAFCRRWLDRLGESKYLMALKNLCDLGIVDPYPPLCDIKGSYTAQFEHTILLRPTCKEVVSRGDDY
Sequence of Sequestosome-1/Microtubule-associated protein tau (P10636 2-758 P618L limits assumed, stated change not applied): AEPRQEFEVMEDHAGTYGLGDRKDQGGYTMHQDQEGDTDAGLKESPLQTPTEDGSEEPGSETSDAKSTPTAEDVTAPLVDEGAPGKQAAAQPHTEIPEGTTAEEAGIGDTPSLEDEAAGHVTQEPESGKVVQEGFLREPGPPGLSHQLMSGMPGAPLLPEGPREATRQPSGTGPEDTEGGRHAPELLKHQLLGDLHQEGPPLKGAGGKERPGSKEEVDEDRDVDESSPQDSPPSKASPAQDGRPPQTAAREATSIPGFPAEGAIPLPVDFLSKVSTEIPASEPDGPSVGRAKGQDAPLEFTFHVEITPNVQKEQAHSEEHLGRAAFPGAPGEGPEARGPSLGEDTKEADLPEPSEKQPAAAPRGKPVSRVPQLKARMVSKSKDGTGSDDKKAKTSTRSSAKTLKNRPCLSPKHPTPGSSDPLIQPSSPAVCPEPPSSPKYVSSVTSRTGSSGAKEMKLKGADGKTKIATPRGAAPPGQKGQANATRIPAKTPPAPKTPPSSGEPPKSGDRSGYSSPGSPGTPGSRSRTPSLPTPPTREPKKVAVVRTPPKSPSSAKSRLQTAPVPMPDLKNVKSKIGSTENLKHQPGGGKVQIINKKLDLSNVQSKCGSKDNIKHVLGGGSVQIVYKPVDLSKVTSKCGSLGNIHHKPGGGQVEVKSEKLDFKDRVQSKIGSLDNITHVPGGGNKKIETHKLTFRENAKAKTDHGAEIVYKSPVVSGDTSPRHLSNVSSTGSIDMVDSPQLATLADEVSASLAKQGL
Sequence of Sequestosome-1/Microtubule-associated protein tau (Q13501 2-440 limits assumed, stated change not applied): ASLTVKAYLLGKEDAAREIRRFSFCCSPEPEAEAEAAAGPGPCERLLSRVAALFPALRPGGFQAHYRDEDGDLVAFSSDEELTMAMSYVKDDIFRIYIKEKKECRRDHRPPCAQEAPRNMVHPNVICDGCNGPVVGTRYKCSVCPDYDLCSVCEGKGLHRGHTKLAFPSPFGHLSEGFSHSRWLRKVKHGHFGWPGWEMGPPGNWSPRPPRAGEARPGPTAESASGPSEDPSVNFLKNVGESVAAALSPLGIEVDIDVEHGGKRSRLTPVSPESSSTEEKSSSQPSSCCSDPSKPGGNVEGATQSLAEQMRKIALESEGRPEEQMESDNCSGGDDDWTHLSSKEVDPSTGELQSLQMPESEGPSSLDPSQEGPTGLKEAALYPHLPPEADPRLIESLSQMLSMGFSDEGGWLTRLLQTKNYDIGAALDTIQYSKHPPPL

In the case of `C=CC(C)(O)C(=O)N(C(=O)NCCOCCOCCNC[C@@H](O)COc1ccc(OCCc2ccccc2)c(OCCCc2ccccc2)c1)c1cc(Cl)cc(Cl)c1` (some centres undefined), the DC50 – broadly, the concentration at which degradation of the target reaches its halfway point – in [1] came out at 200 nM.

As to H-GIYVIWGPITERKKRRKG-NH2, the IC50 – broadly, the midpoint of a concentration-inhibition curve – in [2] is 57.2 nM.

In the case of `O=c1cc(-c2ccccc2)c2c(O)cc(O)cc2o1`, the ED in assay [3] turned out to be 75 nM.

Regarding `CC1=C(C)C2C(c3ccc(Cl)cc3)=N[C@@H](CC(=O)NCCCOCCOCCOCCCNC(=O)COc3c(Br)cc(/C=C4\C(=O)Nc5ccc(I)cc54)cc3Br)c3nnc(C)n3C2S1` (some centres undefined), the Activity in assay [4] came to 92%; in [5], 99%.

`Cc1ccccc1/N=N/c1ccc(/N=N/c2c(OCCCCCCCCCCN3C(=O)/C(=C\c4cc(Br)c(O)c(Br)c4)c4cc(I)ccc43)ccc3ccccc23)c(C)c1` displayed an ED in assay [6] of 5 µM.

For the compound `O[C@H](CNCCOCCOCCOc1ccc(-c2c(-c3ccccc3)nn3c(C(F)(F)F)cc(C(F)(F)F)nc23)cc1)COc1ccc(OCc2ccccc2)c(OCCCc2ccccc2)c1`, the DC50 in assay [7] is 2 nM; in assay [8] it was less than 100 nM; in [9], less than 100 nM; in [10] it was 2 nM; in assay [11] it was less than 100 nM; in assay [12], less than 100 nM.

In turn, `Cc1ccc(C(=O)N(CCCNC(=O)CCCCCCCCN2CCN(S(=O)(=O)c3ccc(NC(=S)NCc4cccnc4)cc3)CC2)[C@@H](c2nc3cc(Cl)ccc3c(=O)n2Cc2ccccc2)C(C)C)cc1` yielded a half-maximal inhibitory concentration (IC50) in assay [13] of 40 nM. In addition, the Activity in [14] was 91%.

For `O=C(CCCc1ccccc1)NCCOCCOCCOCCNCc1ccc(OCc2ccccc2)c(OCc2ccccc2)c1`, the 50% degradation concentration (DC50) in [15] was found to be 1 nM.

Consider `O=C1Nc2ccc(Br)cc2/C1=C/c1cc(O)c(O)c(Br)c1`, for which the ED in assay [3] came out at 50 nM.

For `COC1C(OC(=O)/C=C/C=C/C=C/C=C/C(=O)NCCOCCOCCNCc2cccc(OCc3ccccc3)c2)CCC2(CO2)C1C1(C)OC1CC=C(C)C` (centres undefined), the half-maximal degradation concentration (DC50) in [16] was determined as 700 nM; in assay [17], 500 nM.

In [6], `Cc1ccccc1/N=N/c1ccc(/N=N/c2c(OCCCCCCCCCCOc3cc(O)cc4oc(=O)cc(-c5ccccc5)c34)ccc3ccccc23)c(C)c1` came in with an ED of 5 µM.
